# According to US20090246134A1, “COMPOSITIONS AND METHODS FOR MODULATING GATED ION CHANNELS” (PainCeptor Pharma Corporation, priority 2007, published 2009):
# Values joined by “and” are separate entries in the source; they are usually repeats but may differ in a detail not shown here. Equal entries are not always repeated.
# How the values were obtained:
# ASIC1a = target: T1, ASIC1a (Homo sapiens, UniProt P78348); test: Calcium-imaging (calcium mobilization, FLIPR) assay in ASIC1a expressing HEK293 cells; assay type: cell-based; set-up: host or cells: HEK293; conditions: n=3-7, compounds not radiolabelled
# T1 sequence (P78348 1-528): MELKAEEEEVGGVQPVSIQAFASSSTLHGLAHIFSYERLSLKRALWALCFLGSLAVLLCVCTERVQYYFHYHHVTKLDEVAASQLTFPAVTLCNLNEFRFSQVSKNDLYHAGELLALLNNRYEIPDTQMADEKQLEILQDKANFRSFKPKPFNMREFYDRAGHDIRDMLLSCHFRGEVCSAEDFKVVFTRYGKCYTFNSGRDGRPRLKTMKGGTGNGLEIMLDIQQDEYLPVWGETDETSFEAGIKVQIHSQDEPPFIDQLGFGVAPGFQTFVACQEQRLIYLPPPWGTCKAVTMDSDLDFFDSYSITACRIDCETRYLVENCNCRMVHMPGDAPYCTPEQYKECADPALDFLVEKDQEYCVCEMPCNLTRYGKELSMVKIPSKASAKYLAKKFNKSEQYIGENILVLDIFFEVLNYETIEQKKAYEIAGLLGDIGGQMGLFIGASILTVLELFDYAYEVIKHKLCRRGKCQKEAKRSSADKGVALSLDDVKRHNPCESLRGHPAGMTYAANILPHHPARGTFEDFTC
# Description: ASIC1a expressing HEK293 cells are grown in culture medium (DMEM with 10% FBS), in polystyrene culture flasks ([…]) at 37° C. in a humidified atmosphere of 5% CO2. Confluency of cells should be 80-90% on day of plating. Cells are rinsed with 10 ml of PBS and re-suspended by addition of culture medium and trituration with a 25 ml pipette.
# The cells are seeded at a density of approximately 1×10^6 cells/ml (100 μl/well) in black-walled, clear bottom, 96-well plates pre-treated with 10 mg/l poly-D-lysin (75 μl/well for ≧30 min). Plated cells were allowed to proliferate for 24 h before loading with dye.
# Fluo-4/AM (1 mg, Molecular Probes) is dissolved in 912 μl DMSO. The Fluo-4/AM stock solution (1 mM) is diluted with culture medium to a final concentration of 2 μM (loading solution).
# The culture medium is aspirated from the wells, and 50 μl of the Fluo-4/AM loading solution is added to each well. The cells are incubated at 37° C. for 30 min.
# After the loading period, the loading solution is aspirated and the cells are washed twice with 100 μl modified Assay Buffer (145 mM NaCl, 5 mM KCl, 5 mM CaCl2, 1 mM MgCl2, 10 mM HEPES, pH 7.4) to remove extracellular dye. Following the second wash, 100 μl modified Assay Buffer is added to each well and the fluorescence is measured in FLIPR™ or FlexStation™ (Molecular Devices, USA), or any other suitable equipment known to the skilled in the art.
# Temperature: Room temperature (20-22° C.)
# First addition: 50 μl test solution at a rate of 30 μl/sec and a starting height of […]
# Second addition: 50 μl MES solution (20 mM, 5 mM final concentration) at a rate of 35 μl/sec and a starting height of 150 μl.
# Reading intervals: pre-incubation—10 sec×7 and 3 sec×3 antagonist phase—3 sec×17 and 10 sec×12
# Addition plates (compound test plate and MES plate) are placed on the right and left positions in the FLIPR tray, respectively. Cell plates are placed in the middle position and the ASIC1a program is effectuated. FLIPR will then take the appropriate measurements in accordance with the interval settings above. Fluorescence obtained after stimulation is corrected for the mean basal fluorescence (in modified Assay Buffer).
# The MES-induced peak calcium response, in the presence of test substance, is expressed relatively to the MES response alone. Test substances that block the MES-induced calcium response are re-tested in triplicates. Confirmed hits are picked for further characterization by performing full dose-response curves to determine potency of each hit compound as represented by the IC50 values (i.e., the concentration of the test substance which inhibits 50% of the MES-induced calcium response).
# It is noted that the compounds below are not radiolabelled.
# [1] = Liver microsomes stability and metabolite identification (LC-MS), dog; assay type: in vitro ADME
# [2] = Plasma composition analysis, parent compound and metabolites by MS; assay type: in vivo; conditions: rat plasma; for Plasma Component: P-OH: Compound G: detected but not confirmed (footnote a)
# Description: Rats receive compounds (5 mg/kg) dissolved in HPβCD 15%, dextrose 2.5%, pH 5 by intravenous (i.v). route or (25-30 mg/kg) dissolved in HPβCD 15%, dextrose 2.5%, […] (s.c.) route or (50-150 mg/kg) dissolved in HPβCD 15%, dextrose 2.5%, pH 5 by oral (p.o.) route. After the treatment, approximately 100 μl of blood sample is collected and the accurate bleeding time is recorded for each sample. Each blood sample is collected into Microvette blood collection tube containing anticoagulant lithium heparin. Following collection, the samples are centrifuged at […] for 15 minutes (to avoid haemolysis) and the plasma obtained from each is recovered and stored frozen (at −80° C.) pending analysis. Frozen samples are shipped on dry ice to quantify drug concentration within plasma after extraction procedure as previously described in Example 13.
# [3] = Liver microsomes stability and metabolite identification (LC-MS), human; assay type: in vitro ADME
# From the text: (§1) The objective of this study is to analyze in vitro samples of Compound A and Compound B from rat and human microsomes using liquid chromatography quadrupole ion trap mass spectrometry and identify the nature of the metabolite(s) for each species.
# (§2) The HPLC system consisted of a Thermo Surveror autosampler and a Thermo Surveyor MS pump (San Jose, Calif., USA). The LC-MS/MS system used was a Thermo LCQ Advantage (San Jose, Calif., USA). Data was acquired on a Dell Optiplex desktop computer (Round Rock, Tex., USA) equipped with operation system Windows XP professional. Data acquisition and analysis were performed using XCalibur 1.4 (San Jose, Calif., USA).
# (§3) After the incubation period of the liver microsomes, the reaction was stopped with the addition of acetonitrile and frozen for transport. Before analysis, the samples were thawed at room temperature. They were vortexed vigorously and centrifuged at approximately 12000 g for 10 minutes. The supernatant was transferred into an injection vial for analysis.
# (§4) A gradient mobile phase was used with a Thermo Phenyl 100×2 mm column with particle size of 5 μm. The initial mobile phase condition consisted of methanol and 0.1% formic acid solution at a ratio of 20:80, respectively. From 0 to 2 minutes, the ratio was maintained at 20:80. From 2 to 10 minutes, a linear gradient was applied and a ratio of 90:10 was maintained from 10 to 12 minutes. […] The flow rate was fixed at 0.25 mL/min.
# (§5) The mass spectrometer was interfaced with the HPLC system using a pneumatic assisted electrospray ion source. The sheath gas was set to 15 units and the ESI electrode was set to 4000 V (positive mode). The capillary temperature was set at 300° C., and the capillary voltage was set to 13 V. The mass spectrometer was operating in full scan MS mode using one segment analysis (200-800).
# [4] = tested on: formalin-induced pain in Sprague-Dawley rats; test: Formalin model of acute tonic pain; assay type: in vivo, rat; conditions: rat, in vivo
# Description: Male Sprague-Dawley rats are housed together in groups of three animals under standard conditions with unrestricted access to food and water. All experiments are conducted according to the ethical guidelines for investigations of experimental pain in conscious animals (Zimmerman, 1983)
# Assessment of formalin-induced flinching behavior in normal, uninjured rats (body weight 150-180 g) was made with the use of an Automated Nociception Analyser (University of California, San Diego, USA). Briefly, this involved placing a small C-shaped metal band (10 mm wide×27 mm long) on the hindpaw of the rat to be tested. The rats (four rats were included in each testing session) were then placed in a cylindrical plexiglass observation chamber (diameter 30.5 cm and height 15 cm) for 20 min for adaptation purposes prior to being administered drug or vehicle according to the experimental paradigm being followed. After adaptation, individual rats were then gently restrained and formalin (5% in saline, 50 μl, s.c.) was injected into the plantar surface of the hindpaw using a 27 G needle. Rats were then returned to their separate observation chambers, each of which were in turn situated upon an enclosed detection device consisting of two electromagnetic coils designed to produce an electromagnetic field in which movement of the metal band could be detected. The analogue signal was then digitised and a software algorithm (LabView) applied to enable discrimination of flinching behaviour from other paw movements. A sampling interval of 1 min was used and on the basis of the resulting response patterns 5 phases of nociceptive behaviour were identified and scored: first phase (P1; 0-5 min), interphase (Int; 6-15 min), second phase (P2; […]), phase 2A (P2A; 16-40 min) and phase 2B (P2B; 41-60 min).
# Nociceptive behavior was also determined manually every 5 min by measuring the amount of time spent in each of four behavioral categories: 0, treatment of the injected hindpaw is indistinguishable from that of the contralateral paw; 1, the injected paw has little or no weight placed on it; 2, the injected paw is elevated and is not in contact with any surface; 3, the injected paw is licked, bitten, or shaken. A weighted nociceptive score, ranging from 0 to 3 was calculated by multiplying the time spent in each category by the category weight, summing these products, and dividing by the total time for each 5 min block of time. (Coderre et al., Pain 1993; 54: 43). On the basis of the resulting response patterns, 2 phases of nociceptive behavior were identified and scored: first phase (P1; 0-5 min), interphase (Int; 6-15 min), second phase (P2; […]), phase 2A (P2A; 16-40 min) and phase 2B (P2B; 41-60 min).
# Statistical analysis was performed using Prism™ 4.01 software package (GraphPad, San Diego, Calif., USA). The difference in response levels between treatment groups and control vehicle group was analyzed using an ANOVA followed by Bonferroni's method for post-hoc pair-wise comparisons. A p value<0.05 was considered to be significant
# The effect of Compound A on pain induced by intraplantar formalin injection was investigated. Compound A was administered i.p. 30 min. before the formalin. Compound A was able to reduce the total pain score behavior (flinching, licking, biting) in phase 1 and 2 of the formalin test.
# [5] = Liver microsomes stability and metabolite identification (LC-MS), rat; assay type: in vitro ADME
# From the text: as §1, §2, §3, §4, §5
# [6] = dog microsomes 60 min (samples 26-28)
# [7] = human microsomes 60 min (samples 17-19)
# [8] = rat microsomes 60 min (samples 8-10)
structure (smiles),measurement,setting,value
"COc1ccc(F)cc1-c1cc2c(c3c1CCN(C)C3)NC(=O)/C2=N/O [Compound A (minor Z isomer isolated), 5-(5-fluoro-2-methoxyphenyl)-6,7,8,9-tetrahydro-3-(hydroxyimino)-8-methyl-1H-pyrrolo[3,2-h]isoquinoline-2(3H)-one]",IC50,ASIC1a,1000 nM
"CCN1CCc2c(-c3cc(F)ccc3OC)cc3c(c2C1)NC(=O)/C3=N/O [Compound B, 5-(5-fluoro-2-methoxyphenyl)-6,7,8,9-tetrahydro-3-(hydroxyimino)-8-ethyl-1H-pyrrolo[3,2-h]isoquinoline-2(3H)-one]",Total % metabolites,"[1]; % peak area relative to parent at T0, 60 min incubation, dog microsomes",4.93%
same,Compound B metabolite identification: m/z 342,[1]; [6],very weak
same,Compound B metabolite identification: m/z 356,[1]; [6],very weak
same,Compound B metabolite identification: m/z 370 (parent),[1]; [6],Yes
same,Compound B metabolite identification: m/z 386,[1]; [6],low
same,Calc. Conc.,"[1]; dog microsomes, time 0 min",4.44 µM and 4.56 µM
same,Calc. Conc.,"[1]; dog microsomes, time 60 min",4.33 µM and 4.38 µM and 4.17 µM
same,Plasma Component: N-desMe or desEt,[2]; IV 5 mg/kg,Trace
same,Plasma Component: O-desMe,[2]; IV 5 mg/kg,Trace
same,Plasma Component: P—OH,[2]; IV 5 mg/kg,Trace
same,Plasma Component: N-desMe or desEt,[2]; PO 50 mg/kg,Trace
same,Plasma Component: O-desMe,[2]; PO 50 mg/kg,Trace
same,Plasma Component: P—OH,[2]; PO 50 mg/kg,Trace
same,Plasma Component: N-desMe or desEt,[2]; SC 25 mg/kg,Trace
same,Plasma Component: O-desMe,[2]; SC 25 mg/kg,Trace
same,Plasma Component: P—OH,[2]; SC 25 mg/kg,Trace
same,Total % metabolites,"[3]; % peak area relative to parent at T0, 60 min incubation, human microsomes",9.4%
same,Compound B metabolite identification: m/z 342,[3]; [7],Yes
same,Compound B metabolite identification: m/z 356,[3]; [7],low
same,Compound B metabolite identification: m/z 370 (parent),[3]; [7],Yes
same,Compound B metabolite identification: m/z 386,[3]; [7],Yes
same,Calc. Conc.,"[3]; human microsomes, time 0 min",4.39 µM and 5.04 µM
same,Calc. Conc.,"[3]; human microsomes, time 60 min",4.34 µM and 4.59 µM and 5.03 µM
same,acute tonic pain induced by formalin injection in the paw,[4],block
same,Total % metabolites,"[5]; % peak area relative to parent at T0, 60 min incubation, rat microsomes",12.8%
same,Compound B metabolite identification: m/z 342,[5]; [8],Yes
same,Compound B metabolite identification: m/z 356,[5]; [8],Yes
same,Compound B metabolite identification: m/z 370 (parent),[5]; [8],Yes
same,Compound B metabolite identification: m/z 386,[5]; [8],Yes
same,Calc. Conc.,"[5]; rat microsomes, time 0 min",4.95 µM
same,Calc. Conc.,"[5]; rat microsomes, time 60 min",0.90 µM and 0.92 µM and 0.97 µM
"CCN1CCc2c(-c3cc(Cl)ccc3OC)cc3c(c2C1)NC(=O)/C3=N/O [Compound G, 5-(5-chloro-2-methoxyphenyl)-6,7,8,9-tetrahydro-3-(hydroxyimino)-8-ethyl-1H-pyrrolo[3,2-h]isoquinoline-2(3H)-one]",IC50,ASIC1a,300 nM
same,Plasma Component: N-desEt,[2]; IV 5 mg/kg,Small
same,Plasma Component: O-desMe,[2]; IV 5 mg/kg (table of Compounds G and J),Small
same,Plasma Component: P-OH,[2]; IV 5 mg/kg,Small ^a
same,Plasma Component: N-desEt,[2]; PO 50 mg/kg,Small
same,Plasma Component: O-desMe,[2]; PO 50 mg/kg (table of Compounds G and J),Small
same,Plasma Component: P-OH,[2]; PO 50 mg/kg,Small ^a
"CN1CCc2c(-c3cc(F)ccc3O)cc3c(c2C1)NC(=O)C3=NO [Compound L, 5-(5-Fluoro-2-hydroxyphenyl)-3-(hydroxyimino)-8-methyl-6,7,8,9-tetrahydro-1H-pyrrolo[3,2-h]isoquinolin-2(3H)-one]",IC50,ASIC1a,800 nM
